Results as given in patent US8415480B2, “Thiazolidine carboxamide derivatives as modulators of the prostaglandin F receptor” (Merck Serono SA, priority 2002, dated 2013).
One block for each compound: values may come before it.

Assays:
[1] = target: T1, human Prostaglandin F2α receptor (Homo sapiens, UniProt P43088); test: In vitro competition binding assay on human Prostaglandin F2α receptor (Scintillation Proximity Assay, 3H PGF2-alpha radioligand); conditions: scintillation proximity competition binding assay against Prostaglandin F2α as radioligand; read-out: Binding affinity for human Prostaglandin F2α receptor Ki
T1 construct: Human Prostaglandin F2α receptor (full-length cDNA) was subcloned into the pCEP4; expressed in transfected cells; host or cells: HEK 293 EBNA cells (membrane preparation)
Text: The compounds of formula (II), were be subjected to the following in vitro and in vivo biological assays: • 1) In vitro competition binding assay on human Prostaglandin F2α receptor using a Scintillating Proximity Assay (SPA)
This assay allows to determine the binding affinity of the test compounds of formula (I) for the human Prostaglandin F2α receptor: […]
Human Prostaglandin F2α receptor (full-length cDNA) was subcloned into the pCEP4 (Invitrogen) vector and transfected together with the hygromycin resistance gene into HEK 293 EBNA cells by Calcium-phosphate co-precipitation method. Antibiotic resistant cells were grown under constant selection pressure in DMEM/F-12 medium supplemented with 2% fetal calf serum, 4 mM L-Glutamine and 8 ml/l Insulin-Transferrin-Selenium-mix (all Invitrogen) and 300 μg/ml hygromycin at 37° C. in a humidified atmosphere of 5% CO2 in air. At 48 h before harvesting, receptor expression was enhanced by adding 5 mM of Na-butyrate. Cells were washed twice with phosphate buffer saline, harvested and pelleted by centrifugation.
Cell pellet was lysed by Dounce homogenisation in 250 mM sucrose, 25 mM Tris-HCl pH 7.5, 10 mM MgCl2, 1 mM EDTA containing proteases inhibitors according to the manufacturer (Boehringer Mannheim) at 4° C. The lysate was centrifuged at 1000 g, 4° C. for 10 min and the supernatant was centrifuged at 160000 g, 4° C. for 60 min. The membranes pellets were resuspended in binding buffer (10 mM MES pH 6.2, 10 mM MgCl2, 1 mM EDTA containing proteases inhibitors), frozen in dry ice ethanol and stored at −80° C.
In vitro competition binding with Scintillation proximity assay (SPA) was performed in Corning NBS 96 wells plates. Briefly, 100 μl of binding buffer containing 15 to 30 μg of purified membranes, 4 mg/ml of wheat-germ agglutinin (WGA) SPA beads and 1 to 2 nM of ^3H PGF2-alpha (determined by Scatchard analysis) in 1% DMSO was incubated for 2 hours at room temperature. Non-specific binding was determined in the presence of 1 μM of non-radioactive Prostaglandin F2α. The concentrations of compounds (antagonist) used to compete with the radioactive ligand (agonist) were 10 μM, 3 μM, 1 μM, 300 nM, 100 nM, 30 nM, 10 nM, 1 nM, 100 pM, 10 pM. The radioactivity was counted on a Microbeta plate counter and the binding data were analysed using the iterative, non-linear, curve-fitting program, “Prism” (GraphPad Software, Inc).

[2] = target: T1, human Prostaglandin F2α receptor; test: Inhibition of Prostaglandin F2α induced IP3 synthesis in HEK/EBNA cells expressing the Prostaglandin F2α receptor; type: cell-based; conditions: HEK EBNA cells expressing the human Prostaglandin F2α receptor; 30 nM PGF2α
Description: • 2) In vitro functional assay 1: Inhibition of Prostaglandin F2α induced IP3 (Inositol Triphosphate) Synthesis in HEK/EBNA-cells expressing the Prostaglandin F2α receptor
Cells were transfected by the calcium phosphate precipitation method with the appropriate plasmid and selected for hygromycinB resistance. The surviving colonies were assayed for their ability to retain specific [^3H] PGF2α binding. Selected clones were maintained in DMEM-F12 medium supplemented with 4 mM L-glutamine, 300 μg/ml hygromycinB and 2% fetal bovine serum (10% for cells expressing rFP).
Cells were detached with PBS/EDTA, washed with inositol-free DMEM-F12 medium and seeded at 80000 cells/well in a Poly-L-Lysine precoated 12 well plate. Cells were labelled with myo-[^3H] Inositol at 4 μCi/ml in inositol-free DMEM-F12 supplemented with 1% fetal bovine serum, 4 mM L-glutamine and 300 μg/ml hygromycinB. After 24 hours (rFP expressing cells) or 40 hours (hFP expressing cells), the medium was removed and cells were pre-incubated for 10 min in assay buffer (DMEM-F12 without Inositol, 20 mM Hepes, 0.1% BSA) containing 20 mM LiCl at 37° C. For agonist dose response, cells were then stimulated for 1 hour at room temperature with increasing concentration of PGF2α, in assay buffer. […] For agonist activity determination of the test compounds themselves, the test compounds were added to the cells at 10 μM and 1 μM for 1 hour at room temperature.
800 μl were then transferred to 400 μl of neutralizing solution (0.72N KOH, 0.6 M KHCO3), vortexed, and sedimented for at least 2 hours at 4° C. After centrifugation of 15 min. at 2500 g, 1 ml of the supernatant was loaded on a chromatography column, followed by two washes with 10 ml of water. The IP3 to be quantified were eluted with 3 ml elution buffer (1M ammonium formate, 0.1 M formic acid) and radioactivity was counted on a Beckman LS6000TA scintillation counter to measure the amount of phosphorylated [^3H] inositol.

[3] = target: T1, human Prostaglandin F2α receptor; test: Inhibition of Prostaglandin F2α induced Ca2+-mobilization in HEK/EBNA cells expressing the Prostaglandin F2α receptor (FLIPR); type: cell-based; conditions: HEK EBNA cells expressing the human Prostaglandin F2α receptor, 2 times the EC50 of Prostaglandin F2α
Description: • 3) In vitro functional assay 2: Inhibition of Prostaglandin F2α induced Ca^2′-mobilization in HEK/EBNA-cells expressing the Prostaglandin F2α receptor, as measured by FLIPR® (Fluorimetric Imaging Plate Reader).
HEK EBNA cells were seeded at 60000 cells/well in a Poly-L-Lysine precoated black/white bottom 96 well plate. […] Calcium mobilization was then measured on the FLIPR for 4 min. […] After the wash with FLIPR buffer, increasing concentrations of test compounds were added to the cells in FLIPR buffer and calcium mobilization was measured for 1 min.

[4] = test system: spontaneous uterine contractions in late-term pregnant Sprague Dawley female rats; test: Spontaneous uterine contractions in late-term pregnant rats; type: in vivo, rat
Text: b) Spontaneous Uterine Contractions in Late-Term Pregnant Rats: • (i) Preparation of the Experiment:
Late-term pregnant (19-21 days of gestation) Sprague Dawley female rats (Charles River, Calco, Italy) weighing 350-400 g were anesthetized with urethane (1.05 g/kg, i.p.) and placed on a homeothermic operating table. The trachea was isolated and cannulated with a suitable polyethylene (PE) tubing. A midline incision at the hypogastrium level was made, one pregnant uterine horn exposed and its tubal end closed (near the ovary) by a ligature with surgical silk. In the correspondence of the last foetus near the above-mentioned ovary, the uterine horn wall was incited taking care not to injure the adjacent placenta, and a PE240 tubing with a latex balloon (9 mm length when empty, capacity 0.1 ml; Radnoti, Monrovia, Calif., USA) on the top was inserted into the lumen and secured with surgical silk. After filling the internal cavity of the latex balloon with 0.1 ml of sterile physiological saline solution, the catheter was connected to an amplifying/recording system (MacLab, ADInstruments Pty Ltd, Castle Hill, Australia) via a P23ID Gould Statham pressure transducer. […]
The spontaneous contractile response of the uterus was quantified by evaluating the area under the curve (AUC) of the changes in the intra-luminal uterine pressure over time (by Chart V4.04 for Windows software, PowerLab ADInstruments, Castle Hill, Australia). The effect of the test compound on the spontaneous uterine contraction was evaluated as the percent variation of the AUC calculated in a 10-min interval following the administration of each dose of test compound as compared to the AUC in a 10-min interval before the administration of the first dose of test compound (basal value). When possible, a dose-response curve (of peak effect) was plotted and the relative ED50 value calculated (by S-Plus 2000 v. 4.6 statistical software, Mathsoft, Inc. Seattle, Wash., USA).

[5] = test system: uterine contractions in non-pregnant Sprague Dawley female rats; test: PGF2α or fluprostenol-induced uterine contractions in non-pregnant rats; type: in vivo, rat; conditions: 40 minutes after administration by i.v. route, cumulative dose of 30 mg/kg
Description: a) PGF2α or fluprostenol-induced uterine contractions in non-pregnant rats
Non-pregnant Sprague Dawley female rats (Charles River, Calco, Italy) weighing 200-300 g were used. They received an i.p. injection of 250 μg/kg diethylstilbestrol (DES) 18 and 24 hours before the experiment. On the day of the experiment, they were anaesthetized with urethane (1.05 g/kg, i.p.) and placed on a homeothermic operating table. The trachea was then isolated and cannulated with a suitable polyethylene (PE) tubing. A midline incision at the hypogastrium level was made, one uterine horn exposed and its tubal end closed (near the ovary) by a ligature with surgical silk. About 3 cm posteriorly to the first tie, the uterine horn wall was incited (close to the uterus body) and a PE240 tubing was inserted into the lumen and secured with surgical silk. After filling the internal cavity with 0.2 ml of sterile physiological saline solution, the catheter was connected to an amplifying/recording system (MacLab, ADInstruments Pty Ltd, Castle Hill, Australia) via a P23ID Gould Statham pressure transducer. One jugular vein was then isolated and cannulated with a PE60 catheter connected to a butterfly needle for the intravenous administration of Prostaglandin F2α (Sigma Chem. co., St. Louis, Mo., USA) and (±)fluprostenol (Cayman Chemicals, Ann Arbor, Mich., USA) or test compounds. […]

T1 sequence (P43088 whole entry): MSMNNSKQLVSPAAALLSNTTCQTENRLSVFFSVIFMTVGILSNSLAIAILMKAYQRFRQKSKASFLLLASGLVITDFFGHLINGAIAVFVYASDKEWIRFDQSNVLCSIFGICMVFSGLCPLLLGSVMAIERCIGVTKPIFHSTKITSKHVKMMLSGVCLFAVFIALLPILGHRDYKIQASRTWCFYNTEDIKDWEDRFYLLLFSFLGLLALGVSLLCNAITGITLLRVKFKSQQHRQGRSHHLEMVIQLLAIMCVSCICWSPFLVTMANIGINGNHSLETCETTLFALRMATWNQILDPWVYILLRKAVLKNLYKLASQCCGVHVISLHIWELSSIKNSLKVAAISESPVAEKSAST

Structure (SMILES): CC(=O)NCCNCCC(NC(=O)C1SCCN1S(=O)(=O)c1ccc(-c2ccccc2)cc1)c1ccccc1 (centres unmarked) [N-(3-{[2-(acetylamino)ethyl]amino}-1-phenylpropyl)-3-([1,1′-biphenyl]-4-ylsulfonyl)-1,3-thiazolidine-2-carboxamide]
Ki [1]: 1150 nM

Structure (SMILES): O=C(NC(CN1CCCC1)c1ccccc1)C1SCCN1S(=O)(=O)c1ccc(-c2ccccc2)cc1 (centres unmarked) [3-([1,1′-biphenyl]-4-ylsulfonyl)-N-[1-phenyl-2-(1-pyrrolidinyl)ethyl]-1,3-thiazolidine-2-carboxamide]
Ki [1]: 170 nM

Structure (SMILES): Cc1c(S(=O)(=O)N2CCSC2C(=O)N[C@@H](Cc2ccccc2)C(=O)O)sc2ccc(Cl)cc12 (stereo partly drawn) [(2S)-2-[({3-[(5-chloro-3-methyl-1-benzothien-2-yl)sulfonyl]-1,3-thiazolidine-2-yl}carbonyl)amino]-3-phenylpropanoic acid]
Ki [1]: 330 nM

Structure (SMILES): CN(CCO)CC[C@H](NC(=O)[C@@H]1SCCN1S(=O)(=O)c1ccc(-c2ccccc2)cc1)c1ccccc1 [Example 21, (2S)-3-([1,1′-biphenyl]-4-ylsulfonyl)-N-{(1S)-3-[(2-hydroxyethyl)(methyl)-amino]-1-phenylpropyl}-1,3-thiazolidine-2-carboxamide]
IC50 [2]: 225 nM
IC50 [3]: 202 nM

Structure (SMILES): CCC(C)(C)c1ccc(S(=O)(=O)N2CCS[C@H]2C(=O)N[C@@H](CCO)c2ccccc2)cc1 [Example 10, (2S)—N-[(1S)-3-hydroxy-1-phenylpropyl]-3-[(4-tert-pentylphenyl)sulfonyl]-1,3-thiazolidine-2-carboxamide]
Ki [1]: 120 nM

Structure (SMILES): O=C(NCCc1ccccc1)NCc1ccc(CNC(=O)C2SCCN2S(=O)(=O)c2ccc(-c3ccon3)s2)cc1 (centres unmarked) [3-{[5-(3-isoxazolyl)-2-thienyl]sulfonyl}-N-{4-[({[(2-phenylethyl)amino]carbonyl}amino)methyl]benzyl}-1,3-thiazolidine-2-carboxamide]
Ki [1]: 1100 nM

Structure (SMILES): O=C(NC(CCO)c1ccco1)C1SCCN1S(=O)(=O)c1ccc(-c2ccccc2)cc1 (centres unmarked) [3-([1,1′-biphenyl]-4-ylsulfonyl)-N-[1-(2-furyl)-3-hydroxypropyl]-1,3-thiazolidine-2-carboxamide]
Ki [1]: 620 nM

Continued by falling Ki [1], values first:

IC50 [2]: 185 nM
IC50 [3]: 48 nM
Ki [1]: 65 nM
Structure (SMILES): O=C(N[C@@H](CCO)c1ccccc1)[C@@H]1SCCN1S(=O)(=O)c1ccc(-c2ccccc2)cc1 [Example 1, (2S)-3-([1,1′-biphenyl]-4-ylsulfonyl)-N-[(1S)-3-hydroxy-1-phenylpropyl]-1,3-thiazolidine-2-carboxamide]
ED50 ([4]; Rattus norvegicus, iv, 10 min, i.v. infusion over 10 minutes, spontaneous uterine contractions, read-out: calculated ED50 value): 28 mg/kg
calculated ED50 value ([4]; i.v. infusion over 10 minutes, spontaneous uterine contractions): 2.8 mg/kg/min
inhibition of uterine contractions ([4]; i.v. route (infusion over 10 minutes), cumulative dose of 30 mg/kg): > 50%
inhibition of uterine contractions [5]: 26%

IC50 [2]: 15 nM
IC50 [3]: 20 nM
Ki [1]: 55 nM
Structure (SMILES): O=C(N[C@H](c1ccccc1)c1ccccn1)[C@@H]1SCCN1S(=O)(=O)c1ccc(-c2ccccc2)cc1 [Example 62, (2S)-3-(1,1′-biphenyl-4-ylsulfonyl)-N—[(R)-phenyl(pyridin-2-yl)methyl]-1,3-thiazolidine-2-carboxamide]

Ki [1]: 50 nM
Structure (SMILES): O=C(NC(CCO)c1c(F)cccc1F)C1SCCN1S(=O)(=O)c1ccc(-c2ccccc2)cc1 (centres unmarked) [Example 14, 3-([1,1′-biphenyl]-4-ylsulfonyl)-N-[1-(2,6-difluorophenyl)-3-hydroxypropyl]-1,3-thiazolidine-2-carboxamide]

Ki [1]: 20 nM
Structure (SMILES): CN(CC[C@H](NC(=O)[C@@H]1SCCN1S(=O)(=O)c1ccc(-c2ccccc2)cc1)c1ccccc1)Cc1ccccc1 [Example 19]
